# Data from patent US20180015051A1, “MODULATORS OF ALPHA-DICARBONYL DETOXIFICATION AND THEIR USE FOR THE TREATMENT OF DIABETIC PATHOLOGIES” (Buck Institute for Research on Aging, priority 2016, published 2018).
# Tests used:
# [1] = system: C. elegans; test: Touch assay (touch index, gentle touch)
# Protocol: For feeding RNAi bacteria, synchronized L1 larvae were transferred to NGM plates containing 1 mM of isopropyl P-D-1- thiogalactopyranoside/IPTG (referred to as RNAi plates) seeded with 20× concentrated HT1115 bacteria (cultured overnight at 20° C. at 220 rpm), carrying desired plasmid for RNAi of a specific gene or bacteria carrying empty vector pL4440 as control and allowed to grow on plates for 48 h. For drug assays, synchronized L4 larvae were transferred to either 60 mm NGM plates (with or without IPTG), freshly seeded with 5×E. coli OP50-1 or 20× HT1115 RNAi bacteria. Before seeding, the desired drug (or vehicle control) was mixed with the bacteria. Final drug concentrations were calculated considering the total volume of media and bacteria seeded on the NGM plates.
# Briefly, each animal was touched alternately in the head region and in the tail with an eyelash. Typically, an omega turn or diversion in head direction resulting from anterior touch was counted as a positive response. Posterior touch response (not counted towards positive response) functioned towards resetting of the response to anterior touch. Touch index (TI) scores were generated by dividing the total number of positive responses over the […] per animal.
# Synchronized glod-4 L1 animals were cultured on NGM agar plates seeded with E. coli OP50-1 until L4. […] Post-transfer into wells, animals were fed OP50-1 bacteria ad libitum while incubating at 20° C. on a rocker for 12 h. DMSO was used as control. Post-incubation with drug or DMSO, animals were transferred from wells onto NGM agar plates seeded with OP50-1 bacteria. Touch assay was performed on individual animal and touch index (TI) was calculated for each compound from the library as mentioned earlier.
# [2] = mice and humans; Gomes and Negrato (2014); cited from earlier work
# [3] = system: DAF-16/FOXO; test: DAF-16::GFP nuclear localization; format: in vivo, Caenorhabditis elegans; conditions: 7 mM MGO vs water; heat shock positive control
# Protocol: FIG. 11, panels A-E, SKN-1/Nrf2 activation due to exogenous MGO treatment and specificity of downstream response to a-DC stress. Related to FIG. 3. (A) Quantification (left) and fluorescence microscopy images (right) of GFP foci in gst-4p::gfp animals reared on empty vector (EV, L4440) or skn-1 RNAi supplemented with water (control) or 7 mM MGO. Foci are marked by white arrows. n=91. Scale bar 0.15 mm. […] Animals were categorized as follows: ‘high’ for strong GFP signal throughout the intestine, ‘medium’ for GFP signal in the anterior or posterior section of the intestine and ‘low’ for weak or no signal. n=100. (C) qPCR analysis of SKN-1 target genes, gst-4 and gcs-1 in N2 animals reared on EV or skn-1 RNAi supplemented with water (control, −) or 7 mM MGO (+). The data is normalized to the corresponding expression levels in N2 (EV, water), represented by the dotted line. (D) Fluorescence microscopy images depicting nuclear localization of DAF-16::GFP and SKN-1::GFP supplemented with water (control) or 7 mM MGO. Heat shock was used as a positive control to drive DAF-16 nuclear localization. Red arrows point towards nuclear localized transcription factors (SKN-1 and DAF-16). Scale bar 20 pm. (E) Fluorescence microscopy images to observe GFP foci in glod-4;gst-4p::gfp animals reared on empty vector (EV, L4440), sgk-1, sek-1, or pmk-1 RNAi. Scale bar 20 pm.
# [4] = system: C. elegans; test: Swim-bend assay (body bends in liquid media); format: in vivo, Caenorhabditis elegans; conditions: N2 animals; 7 mM MGO vs water
# [5] = system: GLOD-4/GLO1; test: Glod-4p::gfp expression assay; format: in vivo, Caenorhabditis elegans; conditions: EV, skn-1, or trpa-1 RNAi; MGO (7 mM) vs water
# Protocol: Transgenic adult animals carrying glod-4p::gfp were assayed. Fluorescent intensity was calculated by background subtraction and quantified for the same region of interest across individual animals. All quantification was done using Image J™ software (//imagei.nih.gov/ii/).
smiles,measurement,setting,value
"C[C@]1(C(=O)O)CCC[C@]2(C)c3cc(O)ccc3CC[C@@H]12 [PA, podocarpic acid]","Touch sensitivity (touch index), lack of touch sensitivity","[1]; glod-4, day 8 of adulthood, PA (20 pM) vs EtOH control",lack of touch sensitivity to wild-type levels
same,"Touch sensitivity (touch index), hyperesthesia","[1]; glod-4, young adult stage, PA (20 pM) vs EtOH control",revert the hyperesthesia
"O=C(O)CCCCC1CCSS1 (stereo not shown) [LA, a-lipoic acid]",Effect on diabetic complications,[2],documented to ameliorate diabetic complications
"CC(=O)C=O [MGO, methylglyoxal]",DAF-16/FOXO nuclear localization,[3],failed to trigger
same,Motility (number of body bends in liquid media),[4],lower motility
same,Touch sensitivity (touch index),"[1]; N2 animals, young adult stage, 7 mM MGO vs water",hyperesthesia
same,glod-4p::gfp reporter expression (GFP intensity),[5],trpa-1- and skn-1 -dependent increase in expression
